Measurements from US6989396B2, “Tropane alkaloid multidrug resistance inhibitors from Erythroxylum pervillei and use of the same” (The Board of Trustees of the University of Illinois, priority 2001, dated 2006).
“Also recorded” adds a separate entry of the source. Like-named read-outs stand apart in the source and are kept apart here. Marks after values point to notes of the source that are not given here.

Key:
KB-V1 cells [1] = experiment: [3H]Vinblastine accumulation with intact cells; format: cell-based, human; details: modulator 0–40 μM
Procedure: [^3H]Vinblastine accumulation with intact cells. Measurement of the accumulation of [^3H]vinblastine in cell monolayers was performed by the method of Fojo et al. (34) with some modifications. Studies were performed with 24-well plates. In preparing the cell monolayers, 2 ml of a cell suspension containing 2.5×10^5 cells per ml of incubation medium (DMEM with 10% calf serum) were added to each well. Control wells contained 2 ml of assay medium. […] Monolayers were washed three times with cold PBS, dried by inversion, and the cells were treated with trypsin. Cell suspensions were then transferred to vials containing 3 ml of scintillation solution (CytoScint™, ICN), mixed vigorously, and counted. The quantity of [^3H]vinblastine associated with incubations containing cells was corrected by subtracting the counts associated with incubations not containing cells.

KB-3 cells = experiment: Growth inhibitory potential (sulforhodamine B cell survival assay): KB-3; format: cell-based; details: Homo sapiens, KB3, 72 h, read-out: IC50 KB-3
Procedure: (§1) One part of a natural product drug discovery program involves monitoring the potential of plant extracts to reverse multiple drug resistance. […] To investigate the potential of plant extracts or compounds to reverse multidrug-resistance, KB-V1 cells are treated with different concentrations of plant extracts or compounds in the presence (1 μg/ml) or absence of vinblastine.
(§2) Cytotoxic potential. The cytotoxic potential of test substances with KB-3, KB-V1 and KB-8-5 cells was determined as described previously (24). Briefly, various concentrations of test compounds (dissolved in 10 μl of 10% DMSO) were transferred to 96-well plates, and 190 μl aliquots of cell suspensions (5×10^4 cells/ml) were added to each well. The plates then were incubated for 72 hours at 37° C. (100% humidity with a 5% CO2 atmosphere in air), and 100 μl of cold 20% aqueous trichloroacetic acid were added to the growth medium in each well to fix the cells. The cultures were incubated at 4° C. for 30 minutes, washed, air-dried, stained with sulforhodamine B solution, and washed with 1% acetic acid. Finally, 200 μl of 10 mM Tris base were added to each well and the optical densities were determined at 515 nm utilizing an ELISA plate reader. In each case, a zero-day control was performed by adding an equivalent number of cells to several wells and incubating at 37° C. for 30 minutes, and processing as described above. Optical density values obtained with the zero-day control were subtracted, and cell survival, relative to control (solvent-treated) cultures, was calculated. The cytotoxic potential of the compounds with CEM and CEM/VLB100 cells was determined as described by Beck et al. (30). Cells were grown in 24-well plates at a density of 5–6×10^5 cells/ml. At 48 hours, the cell number was determined using a Coulter Counter, with a channelizer to distinguish cells from debris.

[2] = test system: LNCaP, hormone-dependent prostate cancer; experiment: In vitro cytotoxicity, human tumor panel: LNCaP; format: cell-based; details: Homo sapiens, LNCaP, read-out: ED50 LNCaP
Summary of the method: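 Each compound is tested for cytotoxicity on human tumor cell lines using a published method, and KB-V1 cells are assayed in the presence and absence of vinblastine (VLB).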

MDR1 mRNA = experiment: RT-PCR analysis of MDR1 mRNA expression; format: cell-based, human; details: KB-V1 and CEM/VLB100 cells, 72 hours; pervilleine A up to 34 μM (up to 45 μM), verapamil up to 44 μM
Procedure: RT-PCR analysis of MDR1 mRNA expression. […] Total RNA was isolated from cultured KB-3, KB-V1, CEM and CEM/VLB100 cells with TRIzol reagent (Life Technologies, Inc.) (33), and quantified by UV absorbance. The reverse transcription of RNA was performed by using the SUPERScript™ Preamplification System (Life Technologies, Inc.) in a final volume of 21 μl containing 5×First Strain Synthesis Buffer, 2.5 mM MgCl2, 0.5 mM each dNTP, […], 2 units of RNAse inhibitor, 200 units of Super-Scrip II reverse transcriptase, 0.5 μg oligo (dT)12-18, 2 μg of total RNA (3 μg for CEM and CEM/VLB100 cells), and DEPC-treated water. After incubation at 42° C. for 50 minutes, the room temperature reaction was terminated by heating to 70° C. for 15 minutes. To the newly synthesized cDNA (2 μl), a PCR mixture containing 1.4 mM MgCl2 (1.2 mM for CEM and CEM/VLB100 cells), 2.5 units of Taq polymerase, 0.2 μmol (0.6 μmol for CEM and CEM/VLB100 cells) of primers based on the MDR1 gene (35) and custom synthesized by Ana-Gen Technology, Inc. (Palo Alto, Calif.) (5′-[…]-3′; 5′-[…]-3′) (35). As an internal control, 0.125 μmol (0.1 μmol for CEM and CEM/VLB100 cells) of primers for GAPDH (5′-[…]-3′; 5′-[…]-3′) (36) were added (final volume to 50 μl). […]

KB-V1 cells [3] = experiment: Reversal of MDR, cell survival assay: KB-V1 with or without vinblastine; format: cell-based, human; details: for IC50: Homo sapiens, KB-V1, 72 hours
Procedure: as §1
as §2, with “Finally, 200 μl of 10 mM Tris base were added to each well and the optical densities were determined at 515 nm utilizing an ELISA plate reader.” left out

[4] = vinblastine 1 μg/ml, listed as pervilleine A

## COc1cc(C=CC(=O)O[C@H]2[C@@H](O)[C@@H]3C[C@H](OC(=O)c4cc(OC)c(OC)c(OC)c4)C[C@H]2N3C)cc(OC)c1OC [Compound 3, 3α-(3,4,5-trimethoxybenzoyloxy)-6β-(3,4,5-trimethoxycinnamoyloxy)-7β-hydroxytropane]
KB-V1 cells [1]
  fold increase of [3H]vinblastine accumulation: about 27 fold
KB-3 cells
  IC50: 24 µM
[2]
  IC50: > 20 µg/mL
MDR1 mRNA
  effect on MDR1 mRNA (transcription of MDR1): no significant effect; also recorded: did not significantly alter; also recorded: did not significantly affect
KB-V1 cells [3]; absence of vinblastine, read-out: IC50 KB-V1 (−)
  IC50: > 34 µM
KB-V1 cells [3]; presence of vinblastine (1 μg/ml), read-out: IC50 KB-V1 (+)
  IC50: 0.36 µM
KB-V1 cells [3]; vinblastine 1 μg/ml, listed as Pervilleine A
  Ratio of IC50 values KB-3/[KB-V1 (+)]: 66.6^d
KB-V1 cells [3]; [4]
  Ratio of IC50 values KB-3/[KB-V1 (+)]: 66.6
  Ratio of IC50 values [KB-V1 (−)]/[KB-V1 (+)]: > 95
